# Data published in patent US12404268B2, “2-heteroaryl aminoquinazolinone derivative” (Sumitomo Pharma Co., Ltd., priority 2020, dated 2025).
# Columns and labels:
# [1] = test system: neurons induced to differentiate from SCN1A gene deficient human iPS cells; experiment: Test for measuring hyperexcitation suppression activity (spontaneous calcium oscillation frequency); type: cell-based; conditions: Neuron; for inhibition at 1 µM / inhibition at 0.1 µM: Homo sapiens, read-out: inhibition rate
# How it was run: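 SCN1A-deficient iPS-derived neurons used from day 60 of differentiation, loaded 30 min with Calcium 6 probe. Compounds at final 0.1–100 μM; spontaneous calcium oscillation frequency recorded on FDSS7000EX, with the last 2 of 8 min post-addition expressed relative to the 2 min baseline.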
# [2] = test system: SCN1A loss-of-function genetic mutation mice (epileptic spike); experiment: Evaluation of epileptic spike using SCN1A-mutated animal; type: in vivo, mouse; conditions: F1 SCN1A-mutated mice; spike frequency over 3 hours before and after administration
# Protocol: Evaluation of Epileptic Spike Using SCN1A-Mutated Animal
# This test evaluates the inhibitory effect of a medicament on epileptic spike expressed with an SCN1A loss-of-function genetic mutation.
# Febrile seizure was induced in the SCN1A-mutated mice (6 to 10 week old) described above from increasing the body temperature by placing and continuously incubating the mice in a plastic chamber whose internal temperature was increased by incubation using a warm bath of about 43° C. After two weeks from inducing febrile seizure, a head mount (cat #8201-SS, Pinnacle Technology) was mounted on the head of the mice. Two weeks after mounting the head mount, the F1 SCN1A loss-of-function genetic mutation mice (25 to 32 g) were connected to a seizure EEG recording system (Pinnacle Technology), and the test compound was administered. The epileptic spike frequency over 3 hours before and after administration of the compound was measured, and the dose at which epileptic spike frequency is suppressed to 50% after the administration (ED50) was calculated.
# [3] = test system: male Slc:ddY mice (pentetrazol-induced clonic seizure); experiment: Model subcutaneously injected with pentetrazol (minimum seizure model, scPTZ); type: in vivo, mouse; conditions: 85 mg/kg pentetrazol s.c. 1 hour after oral dosing, observed 30 minutes
# Protocol: Evaluation of Model Subcutaneously Injected with Pentetrazol (Minimum Seizure Model, scPTZ)
# This test evaluates the antiseizure effect of a medicament. The animal model used in this test is a phenotype of generalized absence seizure or myoclonic seizure. The test compound was orally administered to male Slc:ddY mice (group of five, body weight: 20 to 30 g), and 85 mg of pentetrazol/kg was subcutaneously administered 1 hour later. The presence/absence of expression of clonic seizure during 30 minutes was then observed. The dose at which […] (ED50) was calculated. 0.5% methylcellulose solution was administered for the control.
# [4] = test system: male Slc:ddY mice (electroshock-induced tonic extensor seizure); experiment: Maximal electroshock seizure (MES) model; type: in vivo, mouse; conditions: corneal stimulation 60 Hz, 50 mA, 0.2 seconds 1 hour after oral dosing
# Protocol: Evaluation of Maximal Electroshock Seizure (MES) Model
# This test evaluates the antiseizure effect of a medicament in the same manner as Test Example 3. The animal model used in this test is a phenotype of generalized tonic-clonic seizure and secondary generalized partial seizure. The test compound was orally administered to male Slc:ddY mice (group of five, body weight: 20 to 30 g), and electrical stimulation (60 Hz, 50 mA, 0.2 seconds) was applied through the cornea 1 hour later. Suppression of induced expression of tonic extensor seizure of the rear limb was observed. The dose at which […] (ED50) was calculated. 0.5% methylcellulose solution was administered for the control.
# male Slc:ddy mice = experiment: Rotarod evaluation (motor coordination); type: in vivo, mouse; conditions: rotarod 15 rpm, 50 minutes after oral dosing, 180 seconds
# Protocol: The test evaluates the effect of suppressing the ability of motor coordination of a medicament. Male Slc:ddy mice (body weight: 20 to 30 g) were trained to walk for 5 minutes with a rotarod apparatus (apparatus for rotating a cylindrical bar with a 4 cm diameter, 12 rpm) on the day of the test. A test compound was orally administered to a group of 5 mice. […] Animals that fell off within 180 seconds due to incoordination were counted. […] 0.5% methylcellulose solution was administered for the control.
Structure (SMILES),"IC50 ([1]; SCN1A gene deficient human iPS cell-derived neurons, FLIPR Calcium 6, FDSS7000EX, read-out: IC50 (50% inhibitory concentration, frequency of spontaneous calcium oscillation)) [nM]",ED50 (dose at which epileptic spike frequency is suppressed to 50%) [2],ED50 (clonic seizure) [3],ED50 (tonic extensor seizure) [4],TD50 (dosage at which 50% of animals fall off) (male Slc:ddy mice),inhibition at 1 µM [1] [%],inhibition at 0.1 µM [1] [%]
"O=c1c2cc(F)ccc2nc(Nc2cccnc2)n1-c1ccccc1 [Example 12, 6-fluoro-3-phenyl-2-(pyridin-3-ylamino)quinazolin-4(3H)-one]",200,"0.18 mg/kg, p.o.","0.25 mg/kg, p.o.","0.56 mg/kg, p.o.","1.8 mg/kg, p.o.",,
"O=c1c2cc(F)cc(F)c2nc(Nc2cccnc2)n1-c1ccccc1 [Example 32, 6,8-difluoro-3-phenyl-2-(pyridin-3-ylamino)quinazolin-4(3H)-one]",,"1.48 mg/kg, p.o.","4.17 mg/kg, p.o.",,"8.83 mg/kg, p.o.",80,
"O=c1c2cc(F)ccc2nc(Nc2cncc(F)c2)n1-c1ccccc1 [Example 40, 6-fluoro-2-((5-fluoropyridin-3-yl)amino)-3-phenylquinazolin-4(3H)-one]",,"0.12 mg/kg, p.o.","0.27 mg/kg, p.o.","0.56 mg/kg, p.o.","1.8 mg/kg, p.o.",100,
"Cc1ccccc1-n1c(Nc2cccnc2)nc2ccc(C#N)cc2c1=O [Example 109, 4-oxo-2-(pyridin-3-ylamino)-3-(o-tolyl)-3,4-dihydroquinazoline-6-carbonitrile]",,"0.19 mg/kg, p.o.","0.25 mg/kg, p.o.",,"2.0 mg/kg, p.o.",,59
"Cc1ccccc1-n1c(Nc2cncc(F)c2)nc2ccc(C#N)cc2c1=O [Example 114, 2-((5-fluoropyridin-3-yl)amino)-4-oxo-3-(o-tolyl)-3,4-dihydroquinazoline-6-carbonitrile]",,"0.044 mg/kg, p.o.","0.065 mg/kg, p.o.",,"0.2 mg/kg, p.o.",,55
